Experimental data taken from article PMC1931592 (BMC Pharmacology, 2007).
“Also recorded” adds a separate entry of the source.

Columns and labels:
Assay type in all cases: biochemical
[1] = biological target: T1, recombinant human caspase-7 (Homo sapiens, UniProt P55210); assay: Ac-DNLD-MCA and Ac-DEVD-MCA cleavage assay, caspase-7; details: 200 μM substrate, 37°C, MCA liberation
T1 construct: each active recombinant human caspase was incubated; purchased Calbiochem
T1 sequence (P55210 24-198 limits assumed): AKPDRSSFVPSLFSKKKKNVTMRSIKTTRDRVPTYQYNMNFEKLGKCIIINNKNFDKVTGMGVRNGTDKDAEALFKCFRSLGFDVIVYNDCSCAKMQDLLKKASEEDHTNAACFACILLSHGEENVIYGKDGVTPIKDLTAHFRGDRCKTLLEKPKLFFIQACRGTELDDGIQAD
T1 sequence (P55210 207-303 limits assumed): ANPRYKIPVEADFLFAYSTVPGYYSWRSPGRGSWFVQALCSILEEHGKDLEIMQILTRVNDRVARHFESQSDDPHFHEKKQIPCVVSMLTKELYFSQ
Description: (§1) To characterize the potency and selectivity of Ac-DNLD-MCA for caspases-3, -7, -8, and -9, in vitro caspase activity assays were performed. One unit (the amount of enzyme that cleaves 1 nmol of substrate per hr) of each active recombinant human caspase was added to a reaction mixture containing 200 μM Ac-DNLD-MCA or Ac-DEVD-MCA in assay buffer (100 mM NaCl, 50 mM HEPES, 10 mM DTT, 1 mM EDTA, 10% glycerol, and 0.1% CHAPS, pH 7.4). Then, the liberation of MCA was monitored continuously at 37°C using a 96-well plate reader Wallace 1420 ARVOsx (PerkinElmer) with an excitation wavelength of 390 nm and an emission wavelength of 460 nm.

[2] = biological target: T2, recombinant human caspase-8 (Homo sapiens, UniProt Q14790); assay: Ac-DNLD-MCA and Ac-DEVD-MCA cleavage assay, caspase-8; details: 200 μM substrate, 37°C, MCA liberation
T2 construct: each active recombinant human caspase was incubated; purchased Calbiochem
Description: as §1

[3] = biological target: T3, recombinant human caspase-9 (Homo sapiens, UniProt P55211); assay: Ac-DNLD-MCA and Ac-DEVD-MCA cleavage assay, caspase-9; details: 200 μM substrate, 37°C, MCA liberation
T3 sequence (P55211 140-315 limits assumed): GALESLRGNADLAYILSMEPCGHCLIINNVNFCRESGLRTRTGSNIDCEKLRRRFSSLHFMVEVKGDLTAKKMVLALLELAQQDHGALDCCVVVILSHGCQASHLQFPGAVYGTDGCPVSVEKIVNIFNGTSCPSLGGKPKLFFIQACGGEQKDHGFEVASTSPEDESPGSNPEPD
T3 sequence (P55211 331-416 limits assumed): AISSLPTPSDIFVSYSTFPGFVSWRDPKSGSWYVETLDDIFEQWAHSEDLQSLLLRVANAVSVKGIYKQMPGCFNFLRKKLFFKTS
Description: as §1

[4] = biological target: T4, substituted (S209A) caspase-3 (Homo sapiens, UniProt P42574, S209A); assay: Cleavage assay with substituted (S209A) caspase-3 versus wild-type; details: S209A versus wild-type caspase-3
T4 construct: Active caspase-3 was generated by coexpression of HA-p17 and HA-p12 (wild type or mutant) subunits in vitro; (position 176–208, antisense); made in house
T4 sequence (P42574 29-175 limits assumed): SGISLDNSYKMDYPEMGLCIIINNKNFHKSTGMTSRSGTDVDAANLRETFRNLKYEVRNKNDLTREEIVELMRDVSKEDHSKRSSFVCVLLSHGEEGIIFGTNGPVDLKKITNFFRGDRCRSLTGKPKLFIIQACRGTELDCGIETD
T4 sequence (P42574 176-277 S209A limits assumed): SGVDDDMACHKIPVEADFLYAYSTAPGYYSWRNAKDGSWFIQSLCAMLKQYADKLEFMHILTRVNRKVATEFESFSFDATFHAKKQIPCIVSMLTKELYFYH
Description: as §1
Site-directed mutagenesis of p12 subunit (S209A) was introduced using PCR. The following primers were used for the preparation of the mutant, 5'-[…] TGACATG-3' (position 176–208, sense) and 5'-[…]-3' (position 176–208, antisense); 5'-[…]-3' (position 209–277, sense) and 5'-[…]-3' (position 209–277, antisense). The mutated site (Ser209→Ala) was shown in bold letter. After each fragments were amplified and ligated, they were tagged with HA and subcloned into pcDNA3 B (Invitrogen) at the EcoRV site. After comfirming the sequences, the inserts were excited by XhoI digestion and recloned into the XhoI site of pURE4 (Post Genome Institute Co., Ltd.) […]

T2 sequence (Q14790 217-374 limits assumed): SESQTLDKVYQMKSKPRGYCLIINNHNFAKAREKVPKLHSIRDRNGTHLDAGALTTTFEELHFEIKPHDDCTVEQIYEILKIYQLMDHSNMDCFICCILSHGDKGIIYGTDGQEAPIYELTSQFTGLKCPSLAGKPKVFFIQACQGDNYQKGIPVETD
T2 sequence (Q14790 385-479 limits assumed): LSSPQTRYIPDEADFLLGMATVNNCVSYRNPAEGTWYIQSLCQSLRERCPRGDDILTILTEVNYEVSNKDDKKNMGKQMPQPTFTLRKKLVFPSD

Ac-DEVD-MCA
cleavage of fluorometric substrate by caspase-7 (in words) [1]: able to cleave | cleavage of fluorometric substrate by caspase-8 (in words) [2]: able to cleave | cleavage of fluorometric substrate by caspase-9 (in words) [3]: able to cleave | cleavage of substrate by S209A caspase-3 compared with wild-type (in words) [4]: virtually no effect; also recorded: as efficient as the wild-type
